Legend:
[1] = target: T1, D-3-phosphoglycerate dehydrogenase (Homo sapiens) (UniProt O43175); experiment: Inhibition of N-terminal His6-tagged human liver PHGDH expressed in Escherichia coli Rosetta (DE3)pLysS at 57 uM using 3-phosphoglycerate as substrate after 20 mins in presence of NAD+ by resazurin fluorescence based PSAT1/diaphorase/PSPH coupled enzyme assay
T1 sequence (whole entry): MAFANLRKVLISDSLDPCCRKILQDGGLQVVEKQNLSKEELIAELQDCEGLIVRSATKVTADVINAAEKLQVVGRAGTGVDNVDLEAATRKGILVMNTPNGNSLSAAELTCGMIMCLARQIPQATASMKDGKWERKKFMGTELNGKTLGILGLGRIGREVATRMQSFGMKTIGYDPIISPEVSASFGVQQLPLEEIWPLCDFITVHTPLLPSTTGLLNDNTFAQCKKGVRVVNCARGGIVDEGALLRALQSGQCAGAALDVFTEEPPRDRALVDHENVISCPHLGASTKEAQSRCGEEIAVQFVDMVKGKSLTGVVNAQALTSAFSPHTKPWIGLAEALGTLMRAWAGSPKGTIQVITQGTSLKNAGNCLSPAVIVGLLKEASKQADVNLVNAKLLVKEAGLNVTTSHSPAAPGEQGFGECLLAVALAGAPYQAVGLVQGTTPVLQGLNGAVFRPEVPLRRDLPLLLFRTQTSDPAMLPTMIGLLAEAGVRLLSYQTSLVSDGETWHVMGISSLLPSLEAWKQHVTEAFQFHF

[2] = target: T2, D-3-phosphoglycerate dehydrogenase (Homo sapiens, UniProt O43175)
T2 sequence (O43175 whole entry): T1 sequence (whole entry)

[3] = Aqueous solubility of the compound; format: physicochemical
[4] = Half life in rat liver microsomes at 1 uM at 37 degC in presence of NADPH regeneration system incubated for 15 mins by LC-MS/MS analysis; format: ADME, microsome
[5] = target: T2, D-3-phosphoglycerate dehydrogenase; experiment: Inhibition of PHGDH (unknown origin)

Row | Compound | inhibition [1] | IC50 [2] | also measured
1 | Cc1cc(C)nc(NC(=S)N2CCCC(NCc3ccc(C(F)(F)F)cc3)C2)c1 (configuration not stated) | 89% | 12 µM | 
2 | Cc1cc(C)nc(NC(=S)NCCNCc2ccc(C(F)(F)F)cc2)c1 | 41% | 9.7 µM | 
3 | Cc1cc(C)nc(NC(=S)N2CCC(NC(=O)c3ccc(C(F)(F)F)cc3)CC2)c1 | 90% | 10 µM | 
4 | COC(=O)c1ccnc(NC(=S)N2CCN(c3cccc(C(F)(F)F)c3)CC2)c1 | 73% | 13 µM | 
5 | FC(F)(F)c1cccc(N2CCN(C(=S)Nc3cccnc3)CC2)c1 | 67% | 8.9 µM | 
6 | Cc1cc(C)nc(NC(=S)N2CCN(c3ccncc3)CC2)c1 |  |  | Imax [1]: 33%; solubility [3]: > 48 µM
7 | Cc1cc(C)nc(NC(=S)N2CCN(c3ccc(C(F)(F)F)cn3)CC2)c1 | 96% |  | 
8 | Cc1ccnc(NC(=N)N2CCN(c3cccc(C(F)(F)F)c3)CC2)c1 |  |  | Imax [1]: 2%
9 | FC(F)(F)c1cccc(N2CCN(C(=S)Nc3ccncc3)CC2)c1 | 55% | 14 µM | 
10 | Cc1cc(C)nc(NC(=S)N2CCN(Cc3ccc(F)cc3)CC2)c1 | 86% | 38 µM | 
11 | Cc1ccnc(CC(=S)N2CCN(c3cccc(C(F)(F)F)c3)CC2)c1 |  |  | Imax [1]: 37%
12 | Cc1cc(C)nc(NC(=S)N2CCN(c3cccnc3)CC2)c1 | 68% | 50 µM | 
13 | Cc1cc(NC(=S)N2CCN(c3cccc(C(F)(F)F)c3)CC2)nc2ccccc12 | 119% | 21 µM | 
14 | Cc1cc(C)nc(NC(=S)N2CCN(Cc3ccc(Br)cc3)CC2)c1 | 92% | 17 µM | 
15 | Cc1cc(C)nc(NC(=S)N(C)CCN(C)Cc2ccc(C(F)(F)F)cc2)c1 | 84% | 7.3 µM | 
16 | Cc1cccc(CN2CCN(C(=S)Nc3cc(C)cc(C)n3)CC2)c1 | 92% | 20 µM | 
17 | Cc1cc(C)nc(NC(=S)N2CCCC(NC(=O)c3cccc(C(F)(F)F)c3)C2)c1 (configuration not stated) | 91% | 10 µM | 
18 | Cc1cc(C)nc(NC(=S)N2CCN(c3cccc(C(F)(F)F)n3)CC2)c1 | 100% | 11 µM | 
19 | Cc1cc(C)nc(NC(=S)N2CCN(Cc3ccc(C(F)(F)F)cc3)CC2)c1 | 96% |  | 
20 | Cc1cc(C)nc(NC(=S)N2CCN(C(=O)c3cccc(C(F)(F)F)c3)CC2)c1 | 101% | 22 µM | 
21 | Cc1cc(C)nc(NC(=S)N2CCC(NC(=O)c3cccc(C(F)(F)F)c3)CC2)c1 | 94% | 11 µM | 
22 | Cc1cc(C)nc(NC(=S)N2CCC(NCc3ccc(C(F)(F)F)cc3)CC2)c1 | 93% | 15 µM | 
23 | Cc1ccc(CN2CCN(C(=S)Nc3cc(C)cc(C)n3)CC2)cc1 | 93% | 17 µM | 
24 | Cc1cc(C)nc(NC(=S)N2CCN(Cc3ccccc3C)CC2)c1 | 85% | 9.2 µM | 
25 | Cc1cc(C)nc(NC(=S)N2CCN(Cc3ccc(C(F)(F)F)cc3)C(C)C2)c1 (configuration not stated) | 99% | 8.3 µM | 

Row | Compound | inhibition [1] | IC50 [2] | also measured
26 | Cc1cc(C)nc(NC(=S)N2CCCC(NC(=O)c3ccc(C(F)(F)F)cc3)C2)c1 (configuration not stated) | 88% | 8.7 µM | 
27 | Cc1cc(C)nc(NC(=S)N2CCN(c3cccc(C(F)(F)F)c3)CC2)c1 | 92% | 6.3 µM | t1/2 [4]: > 30 min
28 | Cc1cc(C)nc(NC(=S)N2CCN(CCc3ccc(C(F)(F)F)cc3)CC2)c1 | 87% | 23 µM | 
29 | Cc1cc(C)nc(NC(=S)N2CCCN(Cc3ccc(C(F)(F)F)cc3)CC2)c1 | 82% | 7.3 µM | 
30 | Cc1cc(C)nc(NC(=S)N2CCN(Cc3ccc(C(F)(F)F)cc3)C(c3ccccc3)C2)c1 (configuration not stated) | 111% | 31 µM | 
31 | Cc1cc(C)nc(NC(=S)N2CCCC(Nc3ccc(C(F)(F)F)cc3)C2)c1 (configuration not stated) | 85% | 5.7 µM | 
32 | Cc1cc(C)nc(NC(=S)NCCN(C)Cc2ccc(C(F)(F)F)cc2)c1 | 66% | 21 µM | 
33 | Cc1ccnc(N(C)C(=S)N2CCN(c3cccc(C(F)(F)F)c3)CC2)c1 |  |  | Imax [1]: 38%
34 | Cc1cc(C)nc(NC(=S)N2CCC(Nc3cccc(C(F)(F)F)c3)CC2)c1 | 90% | 6.5 µM | 
35 | Cc1cc(C)nc(NC(=S)N2CCN(Cc3ccccc3)CC2)c1 | 78% | 40 µM | 
36 | Cc1cc(C)nc(NC(=S)N2CCN(Cc3cccc(F)c3)CC2)c1 | 88% | 39 µM | 
37 | COc1ccccc1N1CCN(C(=S)Nc2cc(C)cc(C)n2)CC1 | 109% | 24 µM | 
38 | FC(F)(F)c1cccc(N2CCN(C(=S)Nc3cc(C(F)(F)F)ccn3)CC2)c1 | 61% | 6.4 µM | 
39 | Cc1cc(C)nc(NC(=S)N2CCN(Cc3ccccn3)CC2)c1 | 51% | 50 µM | 
40 | COc1cccc(CN2CCN(C(=S)Nc3cc(C)cc(C)n3)CC2)c1 | 94% | 30 µM | 
41 | Cc1cc(C)nc(NC(=S)N2CCN(Cc3cccc(C(F)(F)F)c3)CC2)c1 | 102% | 5.3 µM | 
42 | Cc1cc(C)nc(NC(=S)N2CCN(Cc3ccc(C(F)(F)F)cc3)C(CO)C2)c1 (configuration not stated) | 89% | 5.8 µM | 
43 | Cc1ccnc(NC(=S)N2CCN(c3cccc(C(F)(F)F)c3)CC2)c1 | 92% |  | 
44 | Cc1cc(C)nc(NC(=S)N2CCN(Cc3ccc(C(F)(F)F)cc3)[C@@H](C)C2)c1 | 86% | 9.9 µM | 
45 | Cc1cc(C)nc(NC(=S)N2CCN(Cc3ccc(OC(F)(F)F)cc3)CC2)c1 | 96% | 11 µM | 
46 | Cc1cc(C)nc(NC(=S)N2CCN(Cc3ccncc3)CC2)c1 | 67% | 59 µM | 
47 | Cc1cc(C)nc(NC(=S)N2CCN(Cc3ccccc3F)CC2)c1 | 56% | 41 µM | 
48 | Cc1cc(C)nc(NC(=S)N2CCN(C(=O)c3ccc(C(F)(F)F)cc3)CC2)c1 | 85% | 19 µM | 
49 | COc1cccc(N2CCN(C(=S)Nc3cc(C)cc(C)n3)CC2)c1 | 101% | 14 µM | 
50 | Cc1cc(C)nc(NC(=S)N2CCN(c3ccc(C(F)(F)F)cc3)CC2)c1 | 98% | 4.3 µM | 

Row | Compound | inhibition [1] | IC50 [2] | also measured
51 | COc1ccccc1CN1CCN(C(=S)Nc2cc(C)cc(C)n2)CC1 |  |  | Imax [1]: 21%
52 | Cc1cc(C)nc(NC(=S)N2CCN(c3ccccn3)CC2)c1 | 73% | 37 µM | 
53 | Cc1cc(C)nc(NC(=S)N2CCCC(Nc3cccc(C(F)(F)F)c3)C2)c1 (configuration not stated) | 84% | 7.2 µM | 
54 | Cc1cc(C)nc(NC(=S)N2CCN(Cc3ccc(C(F)(F)F)cc3)[C@H](C)C2)c1 | 94% | 12 µM | 
55 | Cc1cc(C)nc(NC(=S)N2C[C@@H](C)N(Cc3ccc(C(F)(F)F)cc3)[C@@H](C)C2)c1 |  |  | Imax [1]: 16%
56 | COc1ccc(N2CCN(C(=S)Nc3cc(C)cc(C)n3)CC2)cc1 | 99% | 16 µM | 
57 | CCNC(=S)N/N=C/c1ccc(-c2ccc(C(=O)O)c(Cl)c2)o1 |  |  | IC50 [5]: 35.7 µM
58 | Cc1cc(C)nc(NC(=S)N2CCN(Cc3cccnc3)CC2)c1 |  |  | Imax [1]: 34%
59 | Cc1cccc(NC(=S)N2CCN(c3cccc(C(F)(F)F)c3)CC2)c1 |  |  | Imax [1]: 20%
60 | Cc1cc(C)nc(NC(=S)N2CCN(C(C)c3ccc(C(F)(F)F)cc3)CC2)c1 (configuration not stated) | 90% | 8 µM | 
61 | FC(F)(F)c1cccc(N2CCN(C(=S)Nc3ccc4ccccc4n3)CC2)c1 | 90% | 10 µM | 
62 | Cc1ccnc(C(=S)N2CCN(c3cccc(C(F)(F)F)c3)CC2)c1 |  |  | Imax [1]: 9%
63 | COc1ccc(CN2CCN(C(=S)Nc3cc(C)cc(C)n3)CC2)cc1 | 87% | 26 µM | 
64 | Cc1ccnc(NC(=S)N2CCN(c3cccc(C(F)(F)F)c3)CC2)n1 | 111% | 37 µM | 
65 | Cc1cc(C)nc(NC(=S)N2CCN(Cc3ccccc3Cl)CC2)c1 | 106% | 20 µM | 
66 | Cc1cc(C)nc(NC(=S)N2CCN(Cc3ccc(Cl)cc3)CC2)c1 | 97% | 15 µM | 
67 | Cc1cc(C)nc(NC(=S)N2CCN(c3ccccc3C(F)(F)F)CC2)c1 | 101% | 8.7 µM | 
68 | Cc1cc(C)nc(NC(=S)N2CCC(Nc3ccc(C(F)(F)F)cc3)CC2)c1 | 97% | 7.7 µM | 
69 | Cc1cc(C)nc(NC(=S)N2CC3CN(Cc4ccc(C(F)(F)F)cc4)CC3C2)c1 (configuration not stated) | 93% | 16 µM | 
70 | Cc1cc(C)nc(NC(=S)N2CCN(Cc3cccc(Cl)c3)CC2)c1 | 90% | 11 µM | 
71 | Cc1ccnc(NC(=O)N2CCN(c3cccc(C(F)(F)F)c3)CC2)c1 |  |  | Imax [1]: 16%
72 | Cc1cc(C)nc(NC(=S)N2CCN(Cc3ccccc3C(F)(F)F)CC2)c1 | 92% | 6.3 µM | 
73 | Cc1cc(C)nc(NC(=S)N2CCN(Cc3ccc(C(F)(F)F)cc3)C(C(=O)O)C2)c1 (configuration not stated) | 93% | 33 µM | 
74 | FC(F)(F)c1cccc(N2CCN(C(=S)Nc3ccccn3)CC2)c1 | 93% | 6.8 µM | t1/2 [4]: 16 min

Source: ChEMBL document CHEMBL4118111, “Discovery and optimization of piperazine-1-thiourea-based human phosphoglycerate dehydrogenase inhibitors” (Bioorg Med Chem, 2018)
